{"source": "ChEMBL document CHEMBL1221293", "about": "“New effective inhibitors of the Abelson kinase” (Bioorg Med Chem, 2010)", "molecular_target": "Tyrosine-protein kinase ABL1 (Homo sapiens, UniProt P00519)", "sequence (P00519 whole entry)": "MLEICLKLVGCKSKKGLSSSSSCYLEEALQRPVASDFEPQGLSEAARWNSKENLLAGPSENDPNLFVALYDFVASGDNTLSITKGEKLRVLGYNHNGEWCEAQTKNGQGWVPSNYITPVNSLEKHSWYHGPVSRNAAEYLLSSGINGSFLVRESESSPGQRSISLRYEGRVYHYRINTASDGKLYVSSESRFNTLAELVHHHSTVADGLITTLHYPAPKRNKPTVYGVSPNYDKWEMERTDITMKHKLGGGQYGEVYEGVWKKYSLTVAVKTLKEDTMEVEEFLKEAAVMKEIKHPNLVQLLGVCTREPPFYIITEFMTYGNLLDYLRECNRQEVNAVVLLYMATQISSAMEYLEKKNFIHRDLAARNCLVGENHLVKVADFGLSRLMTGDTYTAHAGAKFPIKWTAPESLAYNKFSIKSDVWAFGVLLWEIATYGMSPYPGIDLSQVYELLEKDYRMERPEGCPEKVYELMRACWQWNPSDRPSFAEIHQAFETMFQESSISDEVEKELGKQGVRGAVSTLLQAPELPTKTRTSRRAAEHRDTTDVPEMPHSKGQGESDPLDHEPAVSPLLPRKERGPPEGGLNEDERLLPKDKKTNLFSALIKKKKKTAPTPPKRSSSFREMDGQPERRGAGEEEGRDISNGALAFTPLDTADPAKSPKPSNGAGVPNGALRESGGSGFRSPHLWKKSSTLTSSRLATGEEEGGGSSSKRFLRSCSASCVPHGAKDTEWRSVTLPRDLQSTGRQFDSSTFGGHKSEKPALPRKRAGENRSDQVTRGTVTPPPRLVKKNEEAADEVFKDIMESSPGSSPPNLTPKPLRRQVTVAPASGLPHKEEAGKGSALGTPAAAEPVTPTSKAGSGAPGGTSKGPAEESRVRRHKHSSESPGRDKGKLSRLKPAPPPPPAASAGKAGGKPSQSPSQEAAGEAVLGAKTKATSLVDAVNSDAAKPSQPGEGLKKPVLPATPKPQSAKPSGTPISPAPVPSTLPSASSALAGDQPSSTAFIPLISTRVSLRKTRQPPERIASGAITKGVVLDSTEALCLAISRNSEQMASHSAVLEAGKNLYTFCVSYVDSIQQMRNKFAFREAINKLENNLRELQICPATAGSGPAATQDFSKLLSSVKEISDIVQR", "description": "Inhibition of recombinant c-Abl after 30 mins", "data": [{"smiles": "Cn1c(=O)c(-c2c(Cl)cccc2Cl)cc2cnc(Nc3cccc(NC(=O)CN)c3)nc21", "values": [{"measurement": "Ki", "result": 0.02, "unit": "nM"}]}, {"smiles": "Cn1c(=O)c(-c2c(Cl)cccc2Cl)cc2cnc(NCc3cccc(N)c3)nc21", "values": [{"measurement": "Ki", "result": 8, "unit": "nM"}]}, {"smiles": "Cn1c(=O)c(-c2ccccc2Cl)cc2cnc(NCc3cccc(N)c3)nc21", "values": [{"measurement": "Ki", "result": 60, "unit": "nM"}]}, {"smiles": "Cn1c(=O)c(-c2ccccc2)cc2cnc(NCc3cccc(N)c3)nc21", "values": [{"measurement": "Ki", "result": 2000, "unit": "nM"}]}, {"smiles": "Cn1c(=O)c(-c2c(F)cccc2F)cc2cnc(NCc3cccc(N)c3)nc21", "values": [{"measurement": "Ki", "result": 40, "unit": "nM"}]}, {"smiles": "Cn1c(=O)c(-c2ccccc2Br)cc2cnc(NCc3cccc(N)c3)nc21", "values": [{"measurement": "Ki", "result": 40, "unit": "nM"}]}, {"smiles": "CSc1cccc(CNc2ncc3cc(-c4c(Cl)cccc4Cl)c(=O)n(C)c3n2)c1", "values": [{"measurement": "Ki", "result": 70, "unit": "nM"}]}, {"smiles": "CCCCCCNc1cccc(CNc2ncc3cc(-c4c(Cl)cccc4Cl)c(=O)n(C)c3n2)c1", "values": [{"measurement": "Ki", "result": 900, "unit": "nM"}]}, {"smiles": "Cn1c(=O)c(-c2c(Cl)cccc2Cl)cc2cnc(NCc3cccc(NC(=O)CN)c3)nc21", "values": [{"measurement": "Ki", "result": 20, "unit": "nM"}]}, {"smiles": "Cn1c(=O)c(-c2c(Cl)cccc2Cl)cc2cnc(NCc3cccc(C(=O)CCCC[C@@H]4SC[C@@H]5NC(=O)N[C@@H]54)c3)nc21", "values": [{"measurement": "Ki", "result": 20, "unit": "nM"}]}]}
